Results published in patent US11279678B2 (SHANGHAI ECUST BIOMEDICINE CO., LTD., priority 2017, dated 2022).
Where two headings read alike, the source gives them in different places.

How the values were obtained:
[1] = test system: Hela cervical cancer cell line; assay: In vitro proliferation inhibition of Hela cervical cancer cell line (MTT method); format: cell-based; settings: for IC50: Hela cervical cancer cell line
Protocol: Evaluation of In Vitro Antitumor Activity of Hela Cervical Cancer Tumor Cell Lines with Compounds (MTT Method)
The cells were cultured in RPMI1640 medium containing 200 mL/L fetal bovine serum so that the cells were kept at logarithmic growth. The cells were inoculated to 96-well plate, with a density of 4˜8×10^4/ml, 37° C., and pre-cultured for 24 hours with added drugs. The drugs were set at 6 concentrations, each has 3 holes. After 48 hours of consequent effect, the nutrient solution was then removed and the cells were left for air-drying. Each hole was then added with cold 500 g/L trichloroacetic acid (TCA) 50 μL (final concentration of 100 g/L). After setting for 60 minutes, it was then rinsed for 4-5 times with ionized water and dried. Each hole then was added with 4 g/L SRB 100 μL left for 30 mins. Then it was rinsed with 10 mL/L acetic acid for 4 times, dried. Then 10 mmol Tris-base 200 μL per hole was added, then shaked and mixed, subsequently, oscillating on the plate oscillator for 5 min. The enzyme-linked immunoassay was used to determine the A value. To calibrate, a blank control was used, with a wavelength of 490 nm. Tumor inhibition rate (%)=(Average A value of the control cell hole−Average A value of the drugged hole A)/Average A value of the control cell hole×100%. The positive control cell holes were CA4, CB1, and CB1N. To calculate the IC50 value, the Logit method was used according to the cell growth inhibition rate of different concentrations of the drug.

[2] = test system: human gastric cancer cell MGC-803; assay: In vitro antitumor activity on tumor cell lines (CCK-8 method), MGC-803; format: cell-based; settings: MGC-803, 72 hours
Protocol: (§1) Evaluation of In Vitro Antitumor Activity of Compounds on Multiple Tumor Cell Lines (CCK-8 Method)
(§2) Take the living cells with more than 90% cells for testing. The cell proliferation inhibition test was performed using the EnoGeneCell™ Counting Kit-8 (CK-8) cell viability test kit. The cell was digested, counted and prepared into a cell suspension with a concentration of 1×10^5/mL. 100 μL cell suspension (1×10^4 cells per hole) was added to each hole in the 96-well plate. The 96-well plate was cultured in a 37° C., 5% CO2 incubator for 24 hours. With every hole added with 100 μL respective drugged cultured medium, control groups were set up, including negative control group, solvent control group, and positive control group. Each group has 5 holes. The 96-well plates were cultured at 37° C., in 5% CO2 incubator for 72 hours. Afterward, 10 μL CCK-8 solution was added to each hole, and the culture plate was incubated in the incubator for 4 hours, and the OD value at 450 nm was determined by enzyme labeling instrument. The inhibition rate and IC50 value of these compounds on tumor cells such as human gastric cancer cell MGC-803, human liver cancer cell HepG2, human lung cancer cell A549 and human breast cancer cell MDA-MB-231 were calculated.

[3] = test system: human liver cancer cell HepG2; assay: In vitro antitumor activity on tumor cell lines (CCK-8 method), HepG2; format: cell-based; settings: HepG2, 72 hours
Protocol: as §1, §2

[4] = test system: human lung cancer cell A549; assay: In vitro antitumor activity on tumor cell lines (CCK-8 method), A549; format: cell-based; settings: A549, 72 hours
Protocol: as §1, §2

[5] = test system: human breast cancer cell MDA-MB-231; assay: In vitro antitumor activity on tumor cell lines (CCK-8 method), MDA-MB-231; format: cell-based; settings: MDA-MB-231, 72 hours
Protocol: as §1, §2

in vivo = settings: both, Kunming, mouse, po
Protocol: (§3) Acute Toxicity Test of Single Gastric Administration in Mice
(§4) Kunming mice (weight 17-22 g, equal male and female) were randomly grouped according to body weight, with 10 mice maximum per dose group in the experiment. […] Given by single intraperitoneal injection and a single intragastric injection, observations were done after 0.25 h, 0.5 h, 1 h, 2 h, 4 h, and 24 h respectively. The mortality rate was recorded. Afterward, the groups were observed once everyday, and the mortality rate was recorded for 14 days. On day 15, the living mice were sacrificed for pathological dissection.

[6] = test system: gastric cancer MGC-803 transplanted tumor; assay: Antitumor rate of oral administration in mice with MGC-803 transplanted tumor; format: in vivo; settings: for Tumor inhibition rate (%): d0-d12 every 2 days, 7 times, tumor weight; for tumor size course: about 8 days after administration
Protocol: Antitumor rate of oral administration of the compound towards MGC-803 mice with transplanted tumor
After 1 week of adaptation, the mice were inoculated with gastric cancer MGC-803 tumor tissue subcutaneously. After the tumor grew for 100-300 mm^3, the animals were randomly grouped. For the drug group, each group of each compound had 6 mice, and 12 mice were in the control group. The intragastric administration was employed and the dosage of Ii, Ij, Ik and Il was 25 and 50 mg/kg. The positive control was CA4, the administration time was d0, d2, d4, d6, d8, d10, d12 days, 7 times in total. The tumor size was measured 3 times per week, together with mice weight. The mice were executed 14 days after inoculation and the tumor mass was taken and measured for its weight. The tumor inhibition rate was calculated as tumor weight inhibition rate, and the formula is tumor weight inhibition rate %=(1-treatment group average tumor weight/control group average tumor weight)×100%.

[7] = single intragastric administration, mice
Protocol: as §3, §4

[8] = Homo sapiens, 48 hours drug exposure, read-out: IC50
[9] = Homo sapiens, read-out: IC50 values, Hela proliferation inhibition
[10] = 48 hours drug exposure, read-out: IC50

| Structure (SMILES) | IC50 [1, 8] [µM] | IC50 ([2]; Homo sapiens) [µM] | IC50 ([3]; Homo sapiens) [µM] | IC50 ([4]; Homo sapiens) [µM] | IC50 ([5]; Homo sapiens) [µM] | also measured |
| --- | --- | --- | --- | --- | --- | --- |
| COc1ccc(/C=C\c2cc(OC)c(OC)c(OC)c2)cc1O [CA4, combretastatin A-4, reference compound] | 0.4 | 0.0206 | 1280 | 0.00254 | 0.0033 | IC50 [1, 9]: 0.4 µM; LD50 (in vivo): 1280 mg/kg |
| O=c1[nH]cc(F)c(=O)[nH]1 [Compound 5-FU, 5-fluorouracil, reference compound] | 0.113 | 62.5 | 0.004 | 34.9 | 97 | IC50 [1, 9]: 0.113 µM |
| COc1ccc(/C=C\c2cc(OC)c(OC)c(OC)c2)cc1NC(=O)Cn1cc(F)c(=O)[nH]c1=O [Compound Ia, (Z)-2-(5-fluoro-2,4-dioxo-3,4-dihydropyrimidin-1(2H)-yl)-N-(2-methoxy-5-(3,4,5-trimethoxystyryl)-phenyl)acetamide] | 0.046 | 64.2 | 0.0124 | 27.5 | 112 |  |
| COc1ccc(CCc2cc(OC)c(OC)c(OC)c2)cc1NC(=O)Cn1cc(F)c(=O)[nH]c1=O [Compound Ib, 2-(5-fluoro-2,4-dioxo-3,4-dihydropyrimidin-1(2H)-yl)-N-(5-(3,4,5-trimethoxyphenethyl)-2-methoxyphenyl)-acetamide] | 0.0291 | 1.86 | < 0.19 | < 0.19 | 3.21 |  |
| COc1ccc(C=Cc2cc(OC)c(OC)c(OC)c2)cc1NC(=O)CCn1cc(F)c(=O)[nH]c1=O [Compound Ic, 3-(5-fluoro-2,4-dioxo-3,4-dihydropyrimidin-1(2H)-yl)-N-(5-(3,4,5-trimethoxystyryl)-2-methoxyphenyl)-propanamide] | 0.029 | 48.5 | 150 | 57.9 | 122 | proliferation inhibitory activity on Hela compared to 5-fluorouracil ([1]; ratio to 5-fluorouracil): 4 times; proliferation inhibitory activity on Hela compared to CA4 ([1]; ratio to CA4): 14 times |
| COc1ccc(CCc2cc(OC)c(OC)c(OC)c2)cc1NC(=O)CCn1cc(F)c(=O)[nH]c1=O [Compound Id, 3-(5-fluoro-2,4-dioxo-3,4-dihydropyrimidin-1(2H)-yl) N-(5-(3,4,5-trimethoxyphenethyl)-2-methoxyphenyl)-propanamide] |  |  |  |  |  | IC50 [1, 10]: 0.0298 µM; IC50 [2]: 50.6 µM; IC50 [3]: 110 µM; IC50 [4]: 38 µM; IC50 [5]: 70.2 µM |
| COc1ccc(C=Cc2cc(OC)c(OC)c(OC)c2)cc1NC(=O)CCCn1cc(F)c(=O)[nH]c1=O [Compound Ie, 4-(5-fluoro-2,4-dioxo-3,4-dihydropyrimidin-1(2H)-yl)-N-(5-(3,4,5-trimethoxystyryl)-2-methoxyphenyl)-butanamide] | 0.0688 |  |  |  |  |  |
| COc1ccc(CCc2cc(OC)c(OC)c(OC)c2)cc1NC(=O)CCCn1cc(F)c(=O)[nH]c1=O [Compound If, 4-(5-fluoro-2,4-dioxo-3,4-dihydropyrimidin-1(2H)-yl)-N-(5-(3,4,5-trimethoxyphenethyl)-2-methoxyphenyl)-butanamide] | 0.0288 |  |  |  |  |  |
| CCOc1ccc(CCc2cc(OC)c(OC)c(OC)c2)cc1NC(=O)Cn1cc(F)c(=O)[nH]c1=O [Compound Ig, N-(5-(3,4,5-trimethoxyphenethyl)-2-ethoxyphenyl)-2-(5-fluoro-2,4-dioxo-3,4-dihydropyrimidin-1(2H)-yl)acetamide] | 0.0471 | 25.8 | 39.4 | 59.9 | 60.2 |  |
| CCOc1ccc(CCc2cc(OC)c(OC)c(OC)c2)cc1NC(=O)CCn1cc(F)c(=O)[nH]c1=O [Compound Ih, N-(5-(3,4,5-trimethoxyphenethyl)-2-ethoxyphenyl)-3-(5-fluoro-2,4-dioxo-3,4-dihydropyrimidin-1(2H)-yl)propanamide] | > 0.37 | 23.2 | 171 | 15.2 | 60.6 |  |
| COc1ccc(/C=C\c2cc(OC)c(OC)c(OC)c2)cc1OC(=O)Cn1cc(F)c(=O)[nH]c1=O [Compound Ii, (Z)-2-methoxy-5-(3,4,5-trimethoxystyryl)-phenyl-2-(5-fluoro-2,4-dioxo-3,4-dihydropyrimidin-1(2H)-yl)acetate] |  |  |  |  |  | IC50 [1, 10]: 0.0314 µM; IC50 [2]: < 0.0003 µM; IC50 [3]: 0.0228 µM; IC50 [4]: < 0.0003 µM; IC50 [5]: 0.4 µM; Tumor inhibition rate (%) ([6]; 25 mg/kg intragastric): 62%; Tumor inhibition rate (%) ([6]; 50 mg/kg intragastric): 85%; tumor size course [6]: tendency to shrink; LD50 [7]: 1059 mg/kg |
| COc1ccc(CCc2cc(OC)c(OC)c(OC)c2)cc1OC(=O)Cn1cc(F)c(=O)[nH]c1=O [Compound Ij, 2-methoxy-5-(3,4,5-trimethoxyphenethyl)-phenyl-2-(5-fluoro-2,4-dioxo-3,4-dihydropyrimidin-1(2H)-yl)acetate] |  |  |  |  |  | IC50 [1, 10]: 0.0323 µM; IC50 [2]: < 0.0003 µM; IC50 [3]: 0.141 µM; IC50 [4]: < 0.0003 µM; IC50 [5]: 15.4 µM; Tumor inhibition rate (%) ([6]; 25 mg/kg intragastric): 53%; Tumor inhibition rate (%) ([6]; 50 mg/kg intragastric): 80%; tumor size course [6]: tendency to shrink; LD50 [7]: 1015 mg/kg |
| COc1ccc(/C=C\c2cc(OC)c(OC)c(OC)c2)cc1OC(=O)CCn1cc(F)c(=O)[nH]c1=O [Compound Ik, (Z)-5-(3,4,5-trimethoxystyryl)-2-methoxyphenyl-3-(5-fluoro-2,4-dioxo-3,4-dihydropyrimidin-1(2H)-yl)propanoate] | 0.0296 | < 0.0003 | 7.33 | < 0.0003 | 80.7 | Tumor inhibition rate (%) ([6]; 25 mg/kg intragastric): 48%; Tumor inhibition rate (%) ([6]; 50 mg/kg intragastric): 75%; tumor size course [6]: tendency to shrink; LD50 at 14 days (in vivo): > 1000 mg/kg; LD50 [7]: 1185 mg/kg |
| COc1ccc(/C=C\c2cc(OC)c(OC)c(OC)c2)cc1OC(=O)CCCn1cc(F)c(=O)[nH]c1=O [Compound Im, (Z)-2-methoxy-5-(3,4,5-trimethoxystyryl)-phenyl-4-(5-fluoro-2,4-dioxo-3,4-dihydropyrimidin-1(2H)-yl)butanoate] | 0.03 |  |  |  |  |  |
| CCOc1ccc(CCc2cc(OC)c(OC)c(OC)c2)cc1OC(=O)Cn1cc(F)c(=O)[nH]c1=O [Compound In, 5-(3,4,5-trimethoxyphenethyl)-2-ethoxyphenyl 2-(5-fluoro-2,4-dioxo-3,4-dihydropyrimidin-1(2H)-yl)acetate] | 0.04 | 19.3 | 468 | 4.26 | 102 |  |
| CCOc1ccc(CCc2cc(OC)c(OC)c(OC)c2)cc1OC(=O)CCn1cc(F)c(=O)[nH]c1=O [Compound Io, 5-(3,4,5-trimethoxyphenethyl)-2-ethoxyphenyl-3-(5-fluoro-2,4-dioxo-3,4-dihydropyrimidin-1(2H)-yl)propanoate] | 0.0343 | 0.609 | 0.0017 | 0.0003 | 2.57 |  |
| COc1ccc(CCc2cc(OC)c(OC)c(OC)c2)cc1O [Erianin, reference compound] |  |  |  |  |  | LD50 [7]: 2531 mg/kg |
